The values below come from patent US4960678A, “Photochromic compounds” (Tokuyama Soda Kabushiki Kaisha, priority 1987, dated 1990).

Each structure is given as a SMILES string.

Holding throughout (assay type): physicochemical
The nature of series [1]: Fatigue life of films of fulgimide or fulgide compounds with Cyasorb UV1084, Example 14. The following applies: with Cyasorb UV1084 (0.2 part) as ultraviolet stabilizer in poly(methyl methacrylate) film; xenon fadeometer.
A short description of series [2]: Xenon long-life fadeometer test of photochromic poly(methyl methacrylate) cast film (initial coloration density, T1/2, λmax), Example 9.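 For Initial color density: 0.5 part by weight compound dispersed with PMMA in 100 parts benzene.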 The following applies: poly(methyl methacrylate) cast film 0.1 mm; for Initial color density: initial coloration density (absorbance); for Initial color density / T1/2 (fatigue life): xenon fadeometer; for λmax: maximum absorption wavelength; for T1/2 (fatigue life): time for color density to decrease to half of initial value. From the text: The thickness of the cast film was adjusted to 0.1 mm.
(§1) T1/2 is defined as the time required for the color density to decrease to half of its initial value when the film is exposed to the fadeometer.

Series [3] is described as follows: Fatigue life of film of fulgimide compound obtained in Example 2 with ultraviolet stabilizer, Example 12. Particulars: fulgimide compound obtained in Example 2 (0.2 part) with 0.2 part ultraviolet stabilizer in poly(methyl methacrylate) film; xenon fadeometer. Here is the method: (§2) One hundred parts of benzene, 10 parts of poly(methyl methacrylate), 0.2 part of the fulgimide compound obtained in Example 1 and 0.2 part of each of the compounds shown in Table 5 as an ultraviolet stabilizer were mixed to form a solution. The solution was cast on a slide glass (11.2×3.7cm) to form a cast film having a thickness of 0.1 mm.
(§3) The fatigue life of photochromic film was measured as in Example 9 by a xenon long-life fadeometer (FAL-25AX-HC made by Suga Testing Instrument Co., Ltd.).
Example 11 was repeated except that the fulgimide compound obtained in Example 2 was used instead of fulgimide compound used in Example 11.

A short description of series [4]: Fatigue life of film of fulgimide compound obtained in Example 1 with ultraviolet stabilizer, Example 11. Particulars: fulgimide compound obtained in Example 1 (0.2 part) with 0.2 part ultraviolet stabilizer in poly(methyl methacrylate) film; xenon fadeometer.
Source text: as §1, §2, §3

A short description of series [5]: Fatigue life of film of fulgimide compound obtained in Example 1 with varied amounts of ultraviolet stabilizer, Example 13. The following applies: fulgimide compound of Example 1. How it is done:
[…] The solution was cast on a slide glass (11.2×3.7cm) to form a cast film having a thickness of 0.1 mm.
as §3

The nature of series [6]: Fading speed of poly(methyl methacrylate) cast film after mercury lamp irradiation, Example 9. Particulars: mercury lamp 60 seconds at 20°±1° C., time to half absorbance after irradiation stopped. Here is the method:
The fading speeds of the cast films prepared as above were measured by the following procedure.
The cast film was exposed to a mercury lamp (SHL-100 made by Toshiba Co., Ltd.) at 20°±1° C. for 60 seconds from a distance of 10 cm. Then, the irradiation was stopped, and the fading speed was determined from changes in the absorbance of the cast film measured by a spectrophotometer (220A made by Hitachi Limited). The fading speed is expressed by the time which is required to the absorbance of the cast film to a value half of (the absorbance of the cast film at a maximum absorption wavelength immediately after 60 second irradiation)--(the absorbance of the non-irradiated cast film at the maximum wavelength) after light irradiation for 60 seconds.

The nature of series [7]: Durability test of poly(allyl diglycol carbonate) lens impregnated with compound in silicone oil, Example 10. The following applies: for Initial color density / λmax: impregnated from silicone oil; for T1/2: impregnated from silicone oil at 200° C. for 1 hour, xenon fadeometer. Here is the method:
as §1
The solution was impregnated in the surface of a lens composed of poly(allyl diglycol carbonate) at 200° C. for 1 hour. The concentration of the solution was adjusted to 1.0×10^-4 mole/g.

The mark [8] stands for this setting: stabilizer amount added 0.002 (1 part per 100 parts by weight of fulgimide).
The mark [9] stands for this setting: stabilizer amount added 0.1 (50 parts per 100 parts by weight of fulgimide).
[10] abbreviates: stabilizer amount added 0.8 (400 parts per 100 parts by weight of fulgimide).
Where [11] appears, read: stabilizer amount added 20 (10000 parts per 100 parts by weight of fulgimide).

In turn, `COC(=O)C(C)N1C(=O)C2=C(c3ccccc3)c3ccoc3C3(C4CC5CC3CC(Cl)(C5)C4)C2C1=O` (centres unmarked) [(12)] had a T1/2 in series [1] of 160 h. Besides, in series [2], the Initial color density was 0.79, the λmax stood at 560 nm and the “T1/2 (fatigue life)” value was found to be 31 h.

On to `CCCCC(Cc1cc(C(C)(C)C)c(O)c(C(C)(C)C)c1)(C(=O)OC1CC(C)(C)N(C)C(C)(C)C1)C(=O)OC1CC(C)(C)N(C)C(C)(C)C1` [Tinuvin 144], for which the T1/2 in series [3] was 182 h; in series [4] it was 152 h.

With `CN1C(C)(C)CC(OC(=O)CCCCCCCCC(=O)OC2CC(C)(C)N(C)C(C)(C)C2)CC1(C)C` [Tinuvin 765], the T1/2 in series [3] worked out at 191 h; in series [5] (setting [8]), 106 h; in series [5] (setting [9]), 152 h; in series [5] (setting [10]) it was 166 h; in series [5] (setting [11]), 182 h; in series [4], 159 h.

Regarding `CCCCC12CC3CC(C1)C1(c4c(OC)cc(OC)cc4C(c4ccccc4)=C4C(=O)N(C(C)(C)C#N)C(=O)C41)C(C3)C2` (centres unmarked) [(17)], the T1/2 in series [1] amounted to 188 h. Moreover, in series [2], the Initial color density is 0.49, the λmax is reported as 550 nm and the “T1/2 (fatigue life)” value was 48 h.

As for `CCOP(=O)([O-])Cc1cc(C(C)(C)C)c(O)c(C(C)(C)C)c1.CCOP(=O)([O-])Cc1cc(C(C)(C)C)c(O)c(C(C)(C)C)c1.[Ni+2]` [Irgastab 2002], the T1/2 in series [3] was 176 h; in series [4] it was 147 h.

As to `CC1=C2C(=O)N(CCc3ccc4ccccc4c3)C(=O)C2C2(CC3CCC2C3)c2sc(Br)cc21` (centres unmarked) [(3)], the T1/2 in series [1] was determined as 77 h. For the same compound, in series [2], the Initial color density turned out to be 0.42, the λmax is 535 nm and the “T1/2 (fatigue life)” value stood at 13 h. For the same compound, in series [6], the Fading speed was determined as 71 s.

Take `CC1=C2C(=O)N(CCCCC(=O)OCCc3cccc4ccccc34)C(=O)C2C2(c3sccc31)C1CC3CC(C1)CC2C3` (centres unmarked) [(6)]: the T1/2 in series [1] stood at 65 h. Moreover, in series [2], the Initial color density came out at 0.49, the λmax is reported as 538 nm and the “T1/2 (fatigue life)” value was 16 h. The same compound came in with a Fading speed in series [6] of 76 s.

`CC(C)(C)CC(C)(C)c1ccc([O-])c(Sc2cc(C(C)(C)CC(C)(C)C)ccc2[O-])c1.CCCCN.[Ni+2]` [Cyasorb UV1084]: the T1/2 came to 182 h in series [3]; 110 h in series [5] (setting [8]); 140 h in series [5] (setting [9]); 160 h in series [5] (setting [10]); 180 h in series [5] (setting [11]); 152 h in series [4].

For `CCCCN(CCCC)C(=S)[S-].CCCCN(CCCC)C(=S)[S-].[Ni+2]` [Rylex NBC], the T1/2 in series [3] came out at 190 h; in series [4], 158 h.

As to `CC1=C2C(=O)N(CC#N)C(=O)C2C2(c3sccc31)C1CC3CC(C1)CC2C3` (centres unmarked) [(2)], in series [7], the Initial color density was 0.64, the λmax was 562 nm and the T1/2 was 50 h. This compound came in with a T1/2 in series [1] of 182 h. Further, in series [2], the Initial color density worked out at 0.83, the λmax is given as 553 nm and the “T1/2 (fatigue life)” value worked out at 46 h. Besides, in series [6], the Fading speed worked out at 26 s.

As to `CC1=C2C(=O)OC(=O)C2C2(CC3CCC2C3)c2sc(Br)cc21` (centres unmarked) [(7)], in series [2], the Initial color density stood at 0.38, the λmax was determined as 520 nm and the “T1/2 (fatigue life)” value was 15 h. Also, the Fading speed in series [6] is 21 s.

For `CCC(C(=O)OCCc1ccc2ccccc2c1)N1C(=O)C2=C(C)c3ccsc3C3(C4CC5CC(C4)CC3C5)C2C1=O` (centres unmarked) [(5)], in series [7], the Initial color density was 0.4, the λmax is 520 nm and the T1/2 was 31 h. In series [2], the Initial color density came to 0.51, the λmax was 520 nm and the “T1/2 (fatigue life)” value came to 24 h. The compound further registered a Fading speed in series [6] of 58 s.

As for `CC1=C2C(=O)N(C[N+](=O)[O-])C(=O)C2C2(c3sc(C)cc31)C1CC3CC(C1)CC2C3` (centres unmarked) [(8)], in series [7], the Initial color density was 0.56, the λmax is 562 nm and the T1/2 is 32 h. In series [2], the Initial color density turned out to be 0.72, the λmax amounted to 556 nm and the “T1/2 (fatigue life)” value was found to be 30 h.

As for `COC12CC3CC(C1)C1(c4oc5ccccc5c4C(C)=C4C(=O)N(CC(=O)OC(C)(C)CCC#N)C(=O)C41)C(C3)C2` (centres unmarked) [(14)], in series [7], the Initial color density was 0.63, the λmax is 500 nm and the T1/2 is 42 h. For the same compound, in series [2], the Initial color density was 0.82, the λmax was determined as 490 nm and the “T1/2 (fatigue life)” value stood at 42 h.

On to `COC(=O)CN1C(=O)C2=C(C)c3ccsc3C3(C4CC5CC(C4)CC3C5)C2C1=O` (centres unmarked) [(1)], for which, in series [7], the Initial color density was 0.5, the λmax is on record as 540 nm and the T1/2 is 40 h. In series [2], the Initial color density came out at 0.62, the λmax worked out at 535 nm and the “T1/2 (fatigue life)” value came to 38 h. The same compound came in with a Fading speed in series [6] of 39 s.
